According to US9149041B2, “Stabilized and activated bromine solutions as a biocide and as an antifouling agent” (Bromine Compounds Ltd., priority 2009, dated 2015):

Experiments:
Assay type in all cases: cell-based
[1] = system: Inoculum of bacteria (Activated sludge taken from Domestic Waste Water treatment Plant—Haifa); assay: Microbial efficacy (% kill) at different TOC loading, activated sludge inoculum (Examples 12-13); settings: TOC 100 ppm, 30 min, pH 7
Description: (§1) Inoculum of bacteria (Activated sludge taken from Domestic Waste Water treatment Plant—Haifa).
(§2) R2A agar for general counting.
(§3) Tryptone, in amounts 0.025, 0.119, and 0.239 g solid tryptone respectively, was weighed and dissolved in 1 liter of buffer.
Neutralization solution (NaHSO4).
The biocidal efficacy of the antifouling composition at different organic loads of 0, […], 50 and 100 ppm TOC, was examined under different biocidal concentrations (1, 2.5, and 5 ppm) at pH 7.
1) 1 ml of inoculum was added to tryptone solutions (placed in […], 100 ml each, with different concentrations of TOC-0, 10, 50 and 100 ppm).
(§4) 2) 1 ml of each sample was inoculated on R2A agar (pour plate method). The result stands for the bacteria count at zero time.
3) For each of the tryptone concentrations (0, 10, 50, 100 ppm TOC) an inoculum of bacteria (1 ml) and the appropriate biocide concentration were added.
(§5) 4) After 30 min. of shaking (100 rpm), 1 ml of each sample was transferred to a tube filled with 9 ml of the neutralization solution. An aliquot of 1 ml was taken from this solution and added to another tube containing 9 ml of buffer solution. The solution was mixed under vortex. This operation was repeated for 4 more times.
(§6) 5) 1 ml from the two lowest dilutions was inoculated on a R2A agar (by the pour plate method).
(§7) 6) After the plates were incubated at 25° C. for 5-7 days, the bacteria count was recorded.

[2] = system: Inoculum of bacteria (Activated sludge taken from Domestic Waste Water treatment Plant—Haifa); assay: Microbial efficacy (% bacteria killed) at different TOC loading, activated sludge inoculum (Example 60); settings: 30 min, pH 7
Description: as §1, §2, §3
Neutralization solution (NaHSO4). […]
1) 1 ml of inoculum was added to tryptone solutions (placed in 3 Erlenmeyers, 100 ml each, with different concentrations of TOC-0, 10 and 50 ppm).
as §4
3) For each of the tryptone concentrations (0, 10, 50 ppm TOC) an inoculum of bacteria (1 ml) and the appropriate biocide concentration were added.
as §5, §6, §7

[3] = system: Pseudomonas aeruginosa (ATCC 15442); assay: Microbial efficacy (% bacteria killed) at different TOC loading against Pseudomonas aeruginosa (Example 60)
Description: Pseudomonas aeruginosa (ATCC 15442) […]
2) 1 ml of each sample was inoculated on R2A agar (pour plate method). The result stands for the bacteria count at zero time. […]
as §5, §6, §7
7) The above experiment was repeated with Pseudomonas aeruginosa ATCC 15442 (instead of using an inoculums from sludge), which is representative bacteria that form biofilms.
Microbial efficacy of different biocides against Pseudomonas aeruginosa (ATCC 15442) replacing the use activated sludge bacteria.

[4] = system: Pseudomonas aeruginosa (ATCC 15442) entrapped in alginate gel beads; assay: Biocidal activity against simulated biofilm systems (alginate beads), Example 60
Description: The biofilm simulation was created by entrapping bacteria in alginate gel beads. […] Buffer phosphate at pH 7.2 was used to scrap off the bacteria from the agar plate and to create a suspension. The bacterial suspension was mixed with an equal volume of an aqueous 4% sodium alginate solution, to make a final 2% alginate solution. The alginate and bacterial slurry were placed in a 50 ml syringe attached to a gauge needle (22), connected to a compressed air tank, allowing the syringe to be pressurized. At 20 psig pressure a stream of small drops was forced out and dropped into a stirred solution of 50 mM CaCl2. The Ca^+2 hardened the alginate, and semi solid beads with entrapped bacterial cells were formed. The beads were allowed to stir in the CaCl2 solution for about 20 minutes, and then rinsed in a dilute 5 mM CaCl2 solution. Several flasks containing 100 beads each were incubated overnight at 35° C. on a rotating shaker in a buffer solution (at pH 7) with 5 mM addition of CaCl2 to maintain the beads structure. The resulting beads diameter is about 2 mm.
The neutralizer-citrate solution was placed in the refrigerator for 2 hours, than diluted and placed on R2A agar plates using pour plate technique. The plates were incubated at 35° C. for 24-48 hours and counted. The efficacy and toxicity of the neutralizer were checked as well as a control experiment without biocide addition. Four concentrations (0.5, 1, 2.5 and 5 ppm) were tested at four different contact times (5, 15, 30, and 60 min). […] In addition, the efficacy of bromourea from chlorourea and NaBr (1:0.5 molar ratio) was tested at the same concentrations (mentioned above) and after a long contact time of 24 hours (Table 23).

[5] = TOC 0 ppm, biocide 2.5 ppm as Cl2
[6] = TOC 0 ppm, biocide 5 ppm as Cl2
[7] = TOC 10 ppm, biocide 2.5 ppm as Cl2
[8] = TOC 10 ppm, biocide 5 ppm as Cl2
[9] = TOC 50 ppm, biocide 2.5 ppm as Cl2
[10] = TOC 50 ppm, biocide 5 ppm as Cl2
[11] = TOC 0 ppm, biocide 10 ppm as Cl2
[12] = TOC 10 ppm, biocide 10 ppm as Cl2
[13] = TOC 50 ppm, biocide 10 ppm as Cl2
[14] = TOC 100 ppm, biocide 2.5 ppm as Cl2
[15] = TOC 100 ppm, biocide 5 ppm as Cl2
[16] = biocide 0.5 ppm as Cl2, contact time 0 (initial count)
[17] = biocide 0.5 ppm as Cl2, contact time 5 min
[18] = biocide 0.5 ppm as Cl2, contact time 15 min
[19] = biocide 0.5 ppm as Cl2, contact time 30 min
[20] = biocide 0.5 ppm as Cl2, contact time 60 min
[21] = biocide 1 ppm as Cl2, contact time 0 (initial count)
[22] = biocide 1 ppm as Cl2, contact time 5 min
[23] = biocide 1 ppm as Cl2, contact time 15 min
[24] = biocide 1 ppm as Cl2, contact time 30 min
[25] = biocide 1 ppm as Cl2, contact time 60 min
[26] = biocide 2.5 ppm as Cl2, contact time 0 (initial count)
[27] = biocide 2.5 ppm as Cl2, contact time 5 min
[28] = biocide 2.5 ppm as Cl2, contact time 15 min
[29] = biocide 2.5 ppm as Cl2, contact time 30 min
[30] = biocide 2.5 ppm as Cl2, contact time 60 min
[31] = biocide 5 ppm as Cl2, contact time 0 (initial count)
[32] = biocide 5 ppm as Cl2, contact time 5 min
[33] = biocide 5 ppm as Cl2, contact time 15 min
[34] = biocide 5 ppm as Cl2, contact time 30 min
[35] = biocide 5 ppm as Cl2, contact time 60 min

## [Na+].[O-]Cl [NaOCl, reference compound]
[1]; biocide 1 ppm as Cl2
  % kill: 0%
[1]; biocide 2.5 ppm as Cl2
  % kill: 0%
[1]; biocide 5 ppm as Cl2
  % kill: 0%
[2]; TOC 0 ppm, biocide 1 ppm as Cl2
  % bacteria killed: 54.1%
[2]; [5]
  % bacteria killed: 95.5%
[2]; [6]
  % bacteria killed: 99.6%
[2]; TOC 10 ppm, biocide 1 ppm as Cl2
  % bacteria killed: 3.7%
[2]; [7]
  % bacteria killed: 34.6%
[2]; [8]
  % bacteria killed: 97.1%
[2]; TOC 50 ppm, biocide 1 ppm as Cl2
  % bacteria killed: 0%
[2]; [9]
  % bacteria killed: 12.7%
[2]; [10]
  % bacteria killed: 65.9%
[3]; [5]
  % bacteria killed: 100%
[3]; [6]
  % bacteria killed: 100%
[3]; [11]
  % bacteria killed: 100%
[3]; [7]
  % bacteria killed: 43.10%
[3]; [8]
  % bacteria killed: 100%
[3]; [12]
  % bacteria killed: 100%
[3]; [9]
  % bacteria killed: 17.24%
[3]; [10]
  % bacteria killed: 18.97%
[3]; [13]
  % bacteria killed: 100%
[3]; [14]
  % bacteria killed: 0%
[3]; [15]
  % bacteria killed: 27.59%
[3]; biocide 10 ppm as Cl2
  % bacteria killed: 90.86%
[4]; [16]
  survival of bacteria (CFU): 8.00 × 10^6 CFU
[4]; [17]
  survival of bacteria (CFU): 7.90 × 10^6 CFU
[4]; [18]
  survival of bacteria (CFU): 5.65 × 10^6 CFU
[4]; [19]
  survival of bacteria (CFU): 4.72 × 10^6 CFU
[4]; [20]
  survival of bacteria (CFU): 5.00 × 10^6 CFU
[4]; [21]
  survival of bacteria (CFU): 8.00 × 10^6 CFU
[4]; [22]
  survival of bacteria (CFU): 4.40 × 10^6 CFU
[4]; [23]
  survival of bacteria (CFU): 3.30 × 10^6 CFU
[4]; [24]
  survival of bacteria (CFU): 2.15 × 10^6 CFU
[4]; [25]
  survival of bacteria (CFU): 1.20 × 10^6 CFU
[4]; [26]
  survival of bacteria (CFU): 8.00 × 10^6 CFU
[4]; [27]
  survival of bacteria (CFU): 3.60 × 10^6 CFU
[4]; [28]
  survival of bacteria (CFU): 1.83 × 10^6 CFU
[4]; [29]
  survival of bacteria (CFU): 7.60 × 10^6 CFU
[4]; [30]
  survival of bacteria (CFU): 1.95 × 10^5 CFU
[4]; [31]
  survival of bacteria (CFU): 8.00 × 10^6 CFU
[4]; [32]
  survival of bacteria (CFU): 1.74 × 10^6 CFU
[4]; [33]
  survival of bacteria (CFU): 6.80 × 10^6 CFU
[4]; [34]
  survival of bacteria (CFU): 3. × 10^6 CFU
[4]; [35]
  survival of bacteria (CFU): 1.00 × 10^0 CFU

## NC(=O)NBr [bromourea]
[2]; [5]
  % bacteria killed: 99.14%
[2]; [6]
  % bacteria killed: 98.59%
[2]; [11]
  % bacteria killed: 99.88%
[2]; [7]
  % bacteria killed: 95.48%
[2]; [8]
  % bacteria killed: 99.64%
[2]; [12]
  % bacteria killed: 99.89%
[2]; [9]
  % bacteria killed: 7.34%
[2]; [10]
  % bacteria killed: 91.16%
[2]; [13]
  % bacteria killed: 97.69%
[3]; [5]
  % bacteria killed: 100%
[3]; [6]
  % bacteria killed: 100%
[3]; [11]
  % bacteria killed: 100%
[3]; [7]
  % bacteria killed: 100%
[3]; [8]
  % bacteria killed: 100%
[3]; [12]
  % bacteria killed: 100%
[3]; [9]
  % bacteria killed: 0%
[3]; [10]
  % bacteria killed: 99.36%
[3]; [13]
  % bacteria killed: 100%
[3]; [14]
  % bacteria killed: 0%
[3]; [15]
  % bacteria killed: 7.14%
[3]; biocide 10 ppm as Cl2
  % bacteria killed: 100%

## NC(=O)NCl [chlorourea]
[2]; [5]
  % bacteria killed: 56.09%
[2]; [6]
  % bacteria killed: 75.17%
[2]; [11]
  % bacteria killed: 80.46%
[2]; [7]
  % bacteria killed: 67.59%
[2]; [8]
  % bacteria killed: 72.64%
[2]; [12]
  % bacteria killed: 85.06%
[2]; [9]
  % bacteria killed: 64.37%
[2]; [10]
  % bacteria killed: 72.41%
[2]; [13]
  % bacteria killed: 78.85%
[3]; [5]
  % bacteria killed: 93.33%
[3]; [6]
  % bacteria killed: 99.33%
[3]; [11]
  % bacteria killed: 100%
[3]; [7]
  % bacteria killed: 93.77%
[3]; [8]
  % bacteria killed: 99.77%
[3]; [12]
  % bacteria killed: 100%
[3]; [9]
  % bacteria killed: 94.93%
[3]; [10]
  % bacteria killed: 99.81%
[3]; [13]
  % bacteria killed: 100%
[3]; [14]
  % bacteria killed: 94.20%
[3]; [15]
  % bacteria killed: 99.77%
[3]; biocide 10 ppm as Cl2
  % bacteria killed: 100%
[4]; [16]
  survival of bacteria (CFU): 8.40 × 10^7 CFU
[4]; [17]
  survival of bacteria (CFU): 5.90 × 10^6 CFU
[4]; [18]
  survival of bacteria (CFU): 5.30 × 10^6 CFU
[4]; [19]
  survival of bacteria (CFU): 5.60 × 10^6 CFU
[4]; [20]
  survival of bacteria (CFU): 2.25 × 10^6 CFU
[4]; [21]
  survival of bacteria (CFU): 8.40 × 10^7 CFU
[4]; [22]
  survival of bacteria (CFU): 7.50 × 10^6 CFU
[4]; [23]
  survival of bacteria (CFU): 7.20 × 10^6 CFU
[4]; [24]
  survival of bacteria (CFU): 9.40 × 10^5 CFU
[4]; [25]
  survival of bacteria (CFU): 9.13 × 10^2 CFU
[4]; [26]
  survival of bacteria (CFU): 8.40 × 10^7 CFU
[4]; [27]
  survival of bacteria (CFU): 7.80 × 10^6 CFU
[4]; [28]
  survival of bacteria (CFU): 2.60 × 10^6 CFU
[4]; [29]
  survival of bacteria (CFU): 2.21 × 10^3 CFU
[4]; [30]
  survival of bacteria (CFU): 1.00 × 10^0 CFU
[4]; [31]
  survival of bacteria (CFU): 8.40 × 10^7 CFU
[4]; [32]
  survival of bacteria (CFU): 6.70 × 10^6 CFU
[4]; [33]
  survival of bacteria (CFU): 6.50 × 10^4 CFU
[4]; [34]
  survival of bacteria (CFU): 1.00 × 10^0 CFU
[4]; [35]
  survival of bacteria (CFU): 1.00 × 10^0 CFU
